# Experimental data: patent US20250098671A1, “CHITOSAN ENCAPSULATION OF OXYMATRINE AND TEA SAPONIN FOR USE IN PESTICIDAL ACTIVITY” (priority 2023, published 2025)
# Assays:
# [1] = system: root-knot nematodes (Meloidogyne spp.); assay: Nematocidal activity on hatched root-knot nematodes in Petri dish; details: 15 nematodes; for Nematocidal efficiency (%): up to 3 days
# Description: The tomato roots infected with root-knot nematodes were washed with running water and were then cut to a size of about 1 cm, after which 50 g of the cut roots were placed in a 500 ml round-bottom flask containing 200 ml of 0.5% sodium hypochloride (NaOCl), stopped with a rubber stopper, and shaken vigorously for 3 min to sterilize the roots and at the same time burst the egg bag. Thereafter, the solution was passed through a sieve in which 200 mesh was superimposed on 500 mesh, and washed with distilled water, so the eggs of the root-knot nematodes from which the NaOCl solution was removed were recovered.
# Next, the eggs of the root-knot nematodes thus recovered were surface-sterilized with 0.5% NaOCl for 10 min, washed thoroughly with sterile distilled water, placed in a phosphate buffer (1%) containing sterilized normal saline, and hatched in an incubator at 25° C.
# Thereafter, each mixed solution was diluted to 2000 ppm, 2 to 3 ml thereof was poured into a Petri dish, after which 15 hatched root-knot nematodes were placed in the Petri dish, and nematocidal activity was measured and the results thereof are shown in Table 1 below.
# The number of root-knot nematodes used for the experiment on the number of killed root-knot nematodes was 15 at each dilution factor.
# [2] = all the antioxidant assay systems; cited from earlier work
# [3] = cited from earlier work
# [4] = system: black Sigatoka; assay: Black Sigatoka activity assessed in development of embodiments; details: in vivo
# [5] = system: mildew, and anthracnose; assay: Fungicide activity of Geraniol oil; details: 500 to 4,000 ppm
# [6] = system: root-knot nematodes (Meloidogyne spp.); assay: Nematocidal activity assessed in development of embodiments; assay type: in vivo
# Description: Other embodiments may include the use of other monoterpene alcohols in place of geraniol. In some embodiments, a plant extract selected from the group consisting of a oxymatrine, neem extract, an Ostericum koreanum extract, Quillaja saponaria Molina and a clove extract may be added.
# [7] = system: mosquitos and midge (Ae. aegypti, Culex species mosquitoes, Anopheles species mosquitoes); assay: Mosquito and midge adult activity; assay type: in vivo; details: 500 to 8,000 ppm
# [8] = system: tomato seedlings; assay: Phytotoxicity of geraniol, drenching treatment of potted tomato seedlings; assay type: in vivo; details: for Phytotoxicity symptom / Extent of phytotoxicity (0-5): Tomato, 1 week after treatment; for Extent of phytotoxicity (0-5): 50 ml drench
# Description: Sterilized soil was uniformly mixed, 300 g thereof was then placed in each pot, and tomato seedlings not infected with root-knot nematodes were transplanted thereto.
# [9] = system: plant; assay: Plant phytotoxicity noted in development assessments
# [10] = system: multiple insects; assay: Insecticidal activity on multiple insects; assay type: in vivo; details: 500 to 6,000 ppm
# [11] = system: Black Sigatoka; assay: Field trials against black Sigatoka in bananas; assay type: in vivo, Mycosphaerella fijiensis; details: applied as tank mixes with tea tree oil
# Description: Fungicides are combined in mixtures mainly: to widen the spectrum of antifungal activity and to extend its duration; to exploit the synergistic interaction between the compounds, whereby the overall activity can be increased or the amounts used can be reduced without loss of activity; and to delay or reduce the emergence of resistant strains. […] Although in principle, combinations of synthetic antifungal compounds could be used to reduce the chemical load of any particular compound applied to crops, concerns about resistance development at lower doses have militated against their use as advised by the Fungicide Resistance Action Committee (FRAC).
# [12] = 2000 ppm dilution, mixed 1:1 with emulsifier PLE9
molecule,measurement,setting,value
"C/C=C(\C)C(=O)O[C@H]1C[C@@H](OC(C)=O)[C@@]2(C(=O)OC)CO[C@H]3[C@@H](O)[C@@](C)([C@]45O[C@@]4(C)[C@H]4C[C@@H]5O[C@@H]5OC=C[C@@]54O)[C@H]4[C@]1(CO[C@]4(O)C(=O)OC)[C@@H]32 [Azadirachtin, azadirachtin]","number of killed root-knot nematodes, 1 day",[1]; [12],7
same,"number of killed root-knot nematodes, 2 days",[1]; [12],8
same,"number of killed root-knot nematodes, 3 days",[1]; [12],10
same,Nematocidal efficiency (%),[1]; 2000 ppm dilution,66.7%
"O=c1c(O)c(-c2ccccc2)oc2cc(O)cc(O)c12 [Galangin, galangin]",antioxidant activity,[2],comparable activity with that of AEP and EEP
"CC(C)=CCC/C(C)=C/CO [Geraniol, 3,7-dimethyl-2,6-octadien-1-ol]",solubility in organic solvents,[3]; most common organic solvents,soluble in most common organic solvents
same,solubility in water,[3]; water,insoluble in water
same,control of the black sigatoka fungus,[4],also effective against the fungus
same,fungicidal control,[5],superior fungicidal control
same,nematocidal control,"[6]; 500 to 4,000 ppm",superior nematocidal control
same,nematocidal activity,[6]; utilized alone,superior nematocidal activity
same,mosquito and midge control,[7],superior mosquito and midge control
same,phytotoxicity symptoms in tomato seedlings,[8]; 4000 ppm or more,all tomato seedlings collapsed and withered
same,Phytotoxicity symptom,[8]; Geraniol 100 ppm,No
same,Extent of phytotoxicity (0-5),[8]; Geraniol 100 ppm,0
same,Phytotoxicity symptom,[8]; Geraniol 200 ppm,No
same,Extent of phytotoxicity (0-5),[8]; Geraniol 200 ppm,0
same,Phytotoxicity symptom,[8]; Geraniol 330 ppm,No
same,Extent of phytotoxicity (0-5),[8]; Geraniol 330 ppm,0
same,Phytotoxicity symptom,[8]; Geraniol 500 ppm,No
same,Extent of phytotoxicity (0-5),[8]; Geraniol 500 ppm,0
same,Phytotoxicity symptom,"[8]; Geraniol 1,000 ppm",No
same,Extent of phytotoxicity (0-5),"[8]; Geraniol 1,000 ppm",0
same,Phytotoxicity symptom,"[8]; Geraniol 2,000 ppm",No
same,Extent of phytotoxicity (0-5),"[8]; Geraniol 2,000 ppm",0
same,Phytotoxicity symptom,"[8]; Geraniol 3,000 ppm",No
same,Extent of phytotoxicity (0-5),"[8]; Geraniol 3,000 ppm",0
same,Phytotoxicity symptom,"[8]; Geraniol 4,000 ppm",Withered
same,Extent of phytotoxicity (0-5),"[8]; Geraniol 4,000 ppm",5
same,Phytotoxicity symptom,"[8]; Geraniol 5,000 ppm",Withered
same,Extent of phytotoxicity (0-5),"[8]; Geraniol 5,000 ppm",5
same,Phytotoxicity symptom,"[8]; Geraniol 10,000 ppm",Withered
same,Extent of phytotoxicity (0-5),"[8]; Geraniol 10,000 ppm",5
same,Phytotoxicity symptom,"[8]; Geraniol 20,000 ppm",Withered
same,Extent of phytotoxicity (0-5),"[8]; Geraniol 20,000 ppm",5
same,phytotoxicity symptoms in tomato seedlings,"[8]; concentration range of 100 ppm to 3,000 ppm",no particular phytotoxicity symptoms
same,"number of killed root-knot nematodes, 1 day",[1]; [12],15ª
same,"number of killed root-knot nematodes, 1 day","[1]; Geraniol 2,000 ppm",15
same,plant phytotoxicity,"[9]; 500 to 4,000 ppm",without plant phytotoxicity
same,plant phytotoxicity or water toxicology,"[9]; 500 to 8,000 ppm",without plant phytotoxicity or water toxicology
same,plant phytotoxicity,"[9]; 4,500 ppm or more",plant phytotoxicity was shown to occur
"O=C1CCC[C@@H]2[C@H]3CCC[N+]4([O-])CCC[C@@H](CN12)[C@@H]34 (stereo partly shown) [Oxymatrine, oxymatrine]",insecticidal control,[10],superior insecticidal control
same,"number of killed root-knot nematodes, 1 day",[1]; [12],7
same,"number of killed root-knot nematodes, 2 days",[1]; [12],9
same,"number of killed root-knot nematodes, 3 days",[1]; [12],10
same,plant phytotoxicity,"[9]; 500 to 6,000 ppm",without plant phytotoxicity
CC1COC(Cn2cncn2)(c2ccc(Oc3ccc(Cl)cc3)cc2Cl)O1 (stereo not shown) [difenoconazole],control of Black Sigatoka,[11],effectively controlled Black Sigatoka
CON=C(C(=O)OC)c1ccccc1CON=C(C)c1cccc(C(F)(F)F)c1 [trifloxystrobin],control of Black Sigatoka,[11],effectively controlled Black Sigatoka
pyrethrin,"number of killed root-knot nematodes, 1 day",[1]; [12],5
same,"number of killed root-knot nematodes, 2 days",[1]; [12],6
same,"number of killed root-knot nematodes, 3 days",[1]; [12],11
same,Nematocidal efficiency (%),[1]; 2000 ppm dilution,73.3%
